Legend:
[1] = biological target: T1, MBP–NLRX1 (87–975 amino acids) (Homo sapiens, UniProt Q86UT6); experiment: biotin-acyl-CoA pull-down, immunoblot; type: binding; details: labelled compound (biotin conjugate)
[2] = biological target: T1, MBP–NLRX1 (87–975 amino acids); experiment: biotin-CoASH pull-down and competition with CoASH, immunoblot; type: binding; details: labelled compound; unlabelled CoASH as competitor
[3] = biological target: endogenous NLRX1 (HeLa cell lysate) (Homo sapiens, UniProt Q86UT6); experiment: cellular thermal shift assay on lysate, immunoblot; type: biochemical; details: 500 µM AcCoA, 44.6-65 °C, 3 min
endogenous NLRX1 (HeLa cell lysate), sequence (Q86UT6 87-975): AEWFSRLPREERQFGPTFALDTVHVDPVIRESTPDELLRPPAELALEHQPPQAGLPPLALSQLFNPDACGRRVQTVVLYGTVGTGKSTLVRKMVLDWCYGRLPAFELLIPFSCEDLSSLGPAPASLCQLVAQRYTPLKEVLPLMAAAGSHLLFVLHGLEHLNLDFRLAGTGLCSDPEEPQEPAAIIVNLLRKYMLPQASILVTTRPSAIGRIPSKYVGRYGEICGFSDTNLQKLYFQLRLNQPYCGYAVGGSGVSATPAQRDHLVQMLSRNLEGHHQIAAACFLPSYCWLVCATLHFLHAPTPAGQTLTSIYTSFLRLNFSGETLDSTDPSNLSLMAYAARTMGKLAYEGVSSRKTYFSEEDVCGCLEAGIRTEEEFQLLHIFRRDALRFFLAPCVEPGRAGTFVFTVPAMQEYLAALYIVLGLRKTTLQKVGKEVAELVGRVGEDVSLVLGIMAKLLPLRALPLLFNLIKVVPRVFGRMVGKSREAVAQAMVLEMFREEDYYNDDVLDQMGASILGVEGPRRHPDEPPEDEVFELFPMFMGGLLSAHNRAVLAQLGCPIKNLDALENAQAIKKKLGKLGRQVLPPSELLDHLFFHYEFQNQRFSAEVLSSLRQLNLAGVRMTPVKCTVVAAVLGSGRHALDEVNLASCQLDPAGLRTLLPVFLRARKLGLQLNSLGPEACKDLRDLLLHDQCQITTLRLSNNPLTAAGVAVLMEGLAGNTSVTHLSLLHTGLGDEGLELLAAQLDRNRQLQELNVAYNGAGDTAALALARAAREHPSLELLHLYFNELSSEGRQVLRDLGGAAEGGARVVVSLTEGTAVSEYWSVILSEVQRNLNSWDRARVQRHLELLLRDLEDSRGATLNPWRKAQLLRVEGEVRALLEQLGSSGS

[4] = biological target: T1, MBP–NLRX1 (87–975 amino acids); experiment: competition of AcCoA with biotin-AcCoA pull-down, immunoblot; type: binding; details: unlabelled AcCoA as competitor

T1 sequence (Q86UT6 87-975): as above

Compound: CC(C)(COP(=O)(O)OP(=O)(O)OC[C@H]1O[C@@H](n2cnc3c(N)ncnc32)[C@H](O)[C@@H]1OP(=O)(O)O)[C@@H](O)C(=O)NCCC(=O)NCCSC(=O)CC(=O)O [malonyl-CoA]
- biotin-acyl-CoA pull-down, immunoblot [1]: no interaction between recombinant NLRX1 and malonyl-CoA or succinyl-CoA was detected

Compound: CC(C)(COP(=O)(O)OP(=O)(O)OC[C@H]1O[C@@H](n2cnc3c(N)ncnc32)[C@H](O)[C@@H]1OP(=O)(O)O)[C@@H](O)C(=O)NCCC(=O)NCCS [CoASH]
- biotin-CoASH pull-down and competition with CoASH, immunoblot [2]: CoASH was associated with recombinant NLRX1 to a lesser extent than AcCoA was

Compound: CC(=O)SCCNC(=O)CCNC(=O)[C@H](O)C(C)(C)COP(=O)(O)OP(=O)(O)OC[C@H]1O[C@@H](n2cnc3c(N)ncnc32)[C@H](O)[C@@H]1OP(=O)(O)O [AcCoA]
- thermal shift [3]: AcCoA addition substantially increased the stability of NLRX1 protein level compared with CoASH
- competition of AcCoA with biotin-AcCoA pull-down, immunoblot [4]: increasing concentrations of AcCoA competed with biotin–AcCoA for NLRX1 binding

Compound: CC(C)(COP(=O)(O)OP(=O)(O)OC[C@H]1O[C@@H](n2cnc3c(N)ncnc32)[C@H](O)[C@@H]1OP(=O)(O)O)[C@@H](O)C(=O)NCCC(=O)NCCSC(=O)CCC(=O)O [succinyl-CoA]
- biotin-acyl-CoA pull-down, immunoblot [1]: no interaction between recombinant NLRX1 and malonyl-CoA or succinyl-CoA was detected
